Data taken from patent US20170129919A1, “CYCLIC DIPEPTIDE-CONTAINING COMPOSITION” (Suntory Holdings Limited, priority 2014, published 2017).
Converted amounts (≈) assume the structure as drawn.

Experiments:
[1] = Stability of standard product in aqueous solution (LC-MS/MS content measurement); type: physicochemical
xanthine oxidase (XO) [2] = test: In vitro xanthine oxidase (XO) inhibiting action; type: biochemical; conditions: Table 1; PBS pH 7.5, xanthine substrate, absorbance at 295 nm after 30 minutes; mean±standard error; read-out: IC50 (Activity of Inhibiting XO of Tyr-Containing Cyclic Dipeptides)
Procedure: The in vitro xanthine oxidase (XO) inhibiting action was studied on 210 kinds of cyclic dipeptides, linear dipeptides Tyr-Gly and Gly-Tyr, and an amino acid Tyr. […] Thereafter, 20 μL of a 250 μM xanthine solution previously dissolved in the PBS was added thereto, and the absorbance after 30 minutes was measured using a spectrophotometer (Synegy HT, manufactured by Bio Tek). The XO inhibition rate (%) at each concentration was calculated by the following calculation formula, to obtain activities of inhibiting XO (IC50 values).

hyperuricemic mice = test: Action of lowering serum uric acid levels for hyperuricemic mice (potassium oxonate model); type: in vivo, BALBc mice; conditions: FIG. 2
Procedure: As to the animals used, male 7-week old BALBc mice were purchased from CLEA Japan, Inc., and subjected to an experiment after a one-week period of conditioning. The animals were bred in a breeding room with air-conditioning facilities (temperature: 23.5°±1.0° C., humidity: 55±10 RH %, the number of ventilation: 12 to 15 times/hour, illuminated: from 7:00 to 19:00 each day). During the period of conditioning, the mice were allowed to take a commercially available feed (CE-2, manufactured by CLEA Japan, Inc.) and distilled water ad libitum.
Oxonic acid is a substance that raises a blood uric acid level by inhibiting a urikase, a metabolic enzyme for uric acid. In view of the above, potassium oxonate (PO) was administered, thereby generating hyperuricemic model animals (see, Planta Med 2009; 75:302-306). Studies were made on the following 6 groups:
In all the groups that include PO administration, PO previously suspended in a 0.5% aqueous CMC-Na solution at 250 mg/kg was administered, and Normal Group was administered with a 0.5% aqueous CMC-Na solution, each being administered intraperitoneally. […] After 2 hours from the administration with PO, the blood was collected from the abdominal vena cava under anesthesia. After blood removal, the liver was harvested. The collected blood was allowed to stand at room temperature for 45 minutes, and centrifuged at 8,000 rpm for 10 minutes to recover sera. Here, the sera and the liver were preserved at −80° C. until the measurements were carried out.
The serum uric acid level was measured using 7180 Clinical Analyzer (manufactured by Hitachi Technologies).
The actions of lowering serum uric acid levels of soybean peptide heat-treated products were studied using hyperuricemic model animals, in the same manner as in Test Example 2. Concretely, the animals used were furnished in the same manner as in Test Example 2, and studies were made on the following 5 groups.
For each of the above-mentioned groups, the administration and the blood collection were carried out in the same manner as in Test Example 2 to measure a serum uric acid level. […]
Here, the heat-treated product of the soybean peptide obtained by dissolving a soybean peptide (Hinute AM, manufactured by FUJI OIL, CO., LTD.) in distilled water in a concentration of 200 mg/mL, heating to 132° C. for 3 hours, and lyophilizing the heated mixture was used. The content of the cyclic dipeptide of the soybean peptide heat-treated product was measured according to LC-MS/MS under the following conditions. […]

xanthine oxidase (XO) [3] = target: T1, xanthine oxidase (XO) (Mus musculus, UniProt Q00519); test: XO activity in the liver and sera of hyperuricemic mice; type: in vivo, BALBc mice; conditions: 100 mg/kg orally
T1 construct: the collected supernatant was subjected to an assay for a xanthine oxidase (XO) activity; from tissue; host or cells: liver homogenate supernatant and serum of male BALBc mice (potassium oxonate hyperuricemia model)
Procedure: As to the animals used, male 7-week old BALBc mice were purchased from CLEA Japan, Inc., and subjected to an experiment after a one-week period of conditioning. […] During the period of conditioning, the mice were allowed to take a commercially available feed (CE-2, manufactured by CLEA Japan, Inc.) and distilled water ad libitum.
Next, the livers of mice were added to a mixture of an ice-cooled protease inhibitor cocktail and an EDTA-containing tissue protein extraction reagent (T-PER), homogenized, and then centrifuged at 15,000 rpm, at 4° C. for 15 minutes, and the collected supernatant was subjected to an assay for a xanthine oxidase (XO) activity. […]

Solubility in water = type: physicochemical; conditions: Table 5
Procedure: Concretely, each compound was added to distilled water (manufactured by Otsuka Pharmaceutical Co., Ltd.) at an ambient temperature (25° C.) so as to have a final concentration of 5 mM, and the mixture was stirred under ultrasonication for 30 minutes to dissolve. […] However, none of the compounds dissolved, so that distilled water was further added thereto so as to have a final concentration of 0.01 mM, and the mixture was stirred under ultrasonication for 30 minutes, but still no compounds dissolved.

T1 sequence (Q00519 whole entry): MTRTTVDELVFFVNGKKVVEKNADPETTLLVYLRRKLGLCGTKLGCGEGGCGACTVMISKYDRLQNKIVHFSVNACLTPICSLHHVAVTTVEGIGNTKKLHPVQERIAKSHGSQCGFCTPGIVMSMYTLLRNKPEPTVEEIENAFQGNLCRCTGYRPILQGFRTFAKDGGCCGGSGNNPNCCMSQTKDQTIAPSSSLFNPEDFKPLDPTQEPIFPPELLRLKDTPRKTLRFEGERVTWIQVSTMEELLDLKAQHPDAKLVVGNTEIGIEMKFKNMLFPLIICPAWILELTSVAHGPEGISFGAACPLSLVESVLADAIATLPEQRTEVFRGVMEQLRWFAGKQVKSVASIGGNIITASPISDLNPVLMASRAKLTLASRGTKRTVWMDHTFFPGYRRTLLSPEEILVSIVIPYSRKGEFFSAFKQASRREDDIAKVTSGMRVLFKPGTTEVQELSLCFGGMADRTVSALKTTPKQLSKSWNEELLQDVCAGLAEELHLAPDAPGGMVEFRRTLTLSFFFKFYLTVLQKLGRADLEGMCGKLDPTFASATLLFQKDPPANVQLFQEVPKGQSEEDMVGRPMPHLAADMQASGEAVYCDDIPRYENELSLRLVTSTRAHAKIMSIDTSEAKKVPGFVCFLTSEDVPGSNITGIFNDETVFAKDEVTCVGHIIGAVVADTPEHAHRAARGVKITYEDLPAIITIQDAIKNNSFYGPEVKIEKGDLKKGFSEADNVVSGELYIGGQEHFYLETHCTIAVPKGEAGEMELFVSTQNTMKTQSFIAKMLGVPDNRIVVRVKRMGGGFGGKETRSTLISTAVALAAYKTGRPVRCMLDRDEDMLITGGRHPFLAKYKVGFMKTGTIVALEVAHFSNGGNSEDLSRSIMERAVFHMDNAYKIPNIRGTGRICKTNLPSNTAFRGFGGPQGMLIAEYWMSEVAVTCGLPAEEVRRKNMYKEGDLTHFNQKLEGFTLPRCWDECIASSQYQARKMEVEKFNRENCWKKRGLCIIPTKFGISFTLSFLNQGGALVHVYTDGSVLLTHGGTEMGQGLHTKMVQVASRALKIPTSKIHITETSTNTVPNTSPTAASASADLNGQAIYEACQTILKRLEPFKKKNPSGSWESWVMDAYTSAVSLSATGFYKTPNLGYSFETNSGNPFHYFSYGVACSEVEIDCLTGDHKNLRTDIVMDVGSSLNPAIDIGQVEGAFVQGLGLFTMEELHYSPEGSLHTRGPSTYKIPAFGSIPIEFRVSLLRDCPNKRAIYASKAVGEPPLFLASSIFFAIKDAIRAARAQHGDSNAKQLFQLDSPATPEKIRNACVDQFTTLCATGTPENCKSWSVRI

| SMILES | stability of the standard product in an aqueous solution [1] | IC50 (xanthine oxidase (XO) [2]) | serum uric acid level vs PO Group (hyperuricemic mice; 30 mg/kg orally) | serum uric acid level vs PO Group (hyperuricemic mice; 100 mg/kg orally) | action of lowering serum uric acid level, dose dependence (hyperuricemic mice; 10, 30, 100 mg/kg orally, 1 h after PO 250 mg/kg i.p., blood 2 hours after PO) | xanthine oxidase activity in the sera (xanthine oxidase (XO) [3]; FIG. 3 lower panel) | xanthine oxidase activity in the liver (xanthine oxidase (XO) [3]; FIG. 3 upper panel) | solubility in water (in words) (Solubility in water) | solubility at 30 min (Solubility in water; distilled water, 25° C., ultrasonication 30 minutes, visual examination, tested at 5, 1, 0.1, 0.01 mM, insoluble = not dissolved at 0.01 mM) |
| --- | --- | --- | --- | --- | --- | --- | --- | --- | --- |
| O=C1NC(Cc2ccc(O)cc2)C(=O)NC1CS (stereo not shown) [Cyclo(Tyr-Cys)] | unstable in an aqueous solution | 77.2 ± 4.7 µM | – | – | – | – | – | – | – |
| O=C1CNC(=O)C(Cc2ccc(O)cc2)N1 (stereo not shown) [Cyclo(Tyr-Gly), cyclotyrosylglycine] | – | 49 ± 3 µM | significant difference in effects on the PO Group | significant difference in effects on the PO Group | action of lowering a uric acid level in a dose-dependent manner | inhibited | inhibited | high solubility in water | 1000 µM (≈ 220 µg/mL) |
